The values that follow come from patent US20190048321A1, “Macrophage Enrichment of Cancer Stem Cells” (UNIVERSITY OF SOUTH CAROLINA, priority 2017, published 2019).

The subject of test [1] is MDA-MB-231 human breast cancer cells. The experiment in a line: 3D PEGDA hydrogel culture of MDA-MB-231 cancer cells alone treated with Paclitaxel (MDA+PTX). The test is classed as cell-based. On the procedure: (§1) Polyethylene glycol was functionalized with acrylate end-groups by reaction with acryloyl chloride using well-established procedures to generate a photopolymerizable polyethylene glycol diacrylate (PEGDA). The PEGDA and a photoinitiator (4-(2-hydroxyethoxy)phenyl-(2-hydroxy-2-propyl) ketone (commercial name Irgacure-2959)) were dissolved in aqueous solution to generate a hydrogel precursor solution. Prior to cure, the hydrogel precursor solution was combined with MDA-MB-231 human breast cancer cells alone (MDA), with human spleen-derived macrophages alone (Mac) or with both (MDA+Mac).
(§2) To form the matrices, the cancer cells and/or macrophages were suspended in the PEGDA hydrogel precursor solution, the suspension was pipetted in a tissue culture plate as a thin film, and the film was photopolymerized with UV radiation to encapsulate the cells in the hydrogel matrix.
(§3) This co-culture system was also used to screen Paclitaxel (PTX) toxicity against CSCs. […] MDA cancer cells cultured alone with no PTX (MDA) grew by forming tumor spheres with mixed population of stem and differentiated cells and as shown the growing cells expressed CSC markers.

Test [2] has as its system CSCs in MDA-MB-231 breast tumor cells. The experiment in a line: 3D PEGDA hydrogel co-culture of MDA-MB-231 cancer cells with macrophages treated with Paclitaxel (MDA+Mac/PTX). The test is classed as cell-based, human. As to the method: as §1, §2, §3
In the next test the test system is MDA-MB-231 cells. To be noted: 2D tissue culture plates, previous studies; cited from earlier work.

In the case of `CC(=O)O[C@H]1C(=O)[C@@]2(C)[C@H]([C@H](OC(=O)c3ccccc3)[C@]3(O)C[C@H](OC(=O)[C@H](O)[C@@H](NC(=O)c4ccccc4)c4ccccc4)C(C)=C1C3(C)C)[C@]1(OC(C)=O)CO[C@@H]1C[C@@H]2O` [PTX, Paclitaxel], the cell number result in test [1] (MDA cancer cells alone treated with PTX (MDA+PTX) (FIG. 4a)) is “increased somewhat”. Besides, the “expression of CSC markers” value in test [1] (MDA cancer cells alone treated with PTX (MDA+PTX) (FIG. 4b-d)) was “increased significantly”. In addition, in test [2] (MDA cancer cells with macrophages in 5 kPa PEGDA matrix, treated with PTX (FIG. 4a)), the “cell growth / cell content” value is “effective in halting cell growth and the cell content decreased”. In test [2] (MDA cancer cells with macrophages treated with PTX, with incubation (FIG. 4b-d)), the “expression of CSC markers (CD44, ABCG2, EGFR)” value was “sharply increased”. In addition, the “effectiveness against CSCs” value in test [2] (MDA+Mac/PTX co-culture screen, MDA-MB-231 breast tumor cells) is recorded as “ineffective against CSCs”. In addition, in the test on MDA-MB-231 cells, the “effectiveness against MDA-MB-231 cells” value was “effective”.
